{"source": "patent US6492137B1", "about": "“Response element compositions and assays employing same” (The Salk Institute for Biological Studies, priority 1989, dated 2002)", "key": {"TRβ [1]": {"target": "T1, TRβ (Homo sapiens, UniProt P10828)", "T1 sequence (P10828 1-461)": "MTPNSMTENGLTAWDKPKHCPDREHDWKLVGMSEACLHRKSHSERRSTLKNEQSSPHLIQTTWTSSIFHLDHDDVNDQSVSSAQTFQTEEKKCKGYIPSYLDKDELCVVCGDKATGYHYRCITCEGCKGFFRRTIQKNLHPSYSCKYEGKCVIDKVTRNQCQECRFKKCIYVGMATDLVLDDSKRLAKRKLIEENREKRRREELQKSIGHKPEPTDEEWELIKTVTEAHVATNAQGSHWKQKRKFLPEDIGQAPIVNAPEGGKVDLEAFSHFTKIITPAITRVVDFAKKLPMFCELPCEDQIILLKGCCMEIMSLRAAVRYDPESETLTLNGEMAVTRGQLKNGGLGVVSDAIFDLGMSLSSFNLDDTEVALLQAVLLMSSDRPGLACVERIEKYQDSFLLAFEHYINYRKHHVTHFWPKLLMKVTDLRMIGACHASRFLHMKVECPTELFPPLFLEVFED", "assay": "ΔSV-CAT reporter cotransfection assay in CV-1 cells with TRβ expression plasmid, ±T3", "type": "cell-based", "set-up": "expressed in transfected cells; host or cells: CV-1 (monkey kidney)", "conditions": "TRβ expression vector", "source_text": "Receptor expression plasmids used in the following cotransfection assays have been described previously (pRShTRβ [see Thompson, et al., Proc. Natl. Acad. Sci. U.S.A. 86: 3494-3498 (1989)]; pRShRARα [see Giguere, et al., Nature 330: 624-629 (1987)]; pRShRARβ and pRshRARγ [see Ishikawa, et al., Mol. Endocrinol, 4: 837-844 (1990)]; and pRShVDR, [Schule, et al., Cell 61: 497-504 (1990)]. A basal reporter plasmid ΔSV-CAT was constructed by replacing the TK promoter in TK-CAT [Damm, et al., Nature 339: 593-597 (1989)] with the SphI-HindIII fragment of the SV40 early promoter. All of the recombinant CAT reporter plasmids used herein harbor a single copy of the indicated oligonucleotides at the unique HindIII site upstream of the SV40 promoter. […] To improve production of receptor proteins in COS cells, a new eukaryotic expression vector pCMX was prepared by modifying the plasmid CDM8 [Seed, B., Nature 329: 840-842 (1987)]. The CDM8 was cut with MluI and StuI in order to release the DNA fragment encoding the CMV/T7 promoter, SV40 small t intron/poly A signal, polyoma virus enhancer/origin, and SV40 enhancer/origin. The resulting fragment was ligated to a larger fragment of PvuII-digested PUC19. An internal deletion was introduced between unique BamHI and BclI sites present in the DCM8 portion. The stuffer sequence flanked by XbaI sites was replaced with a synthetic polylinker coding for 5′-KpnI/Asp718-EcoRV-BamHI -MscI-NheI-3′, followed by a stretch of 5′-[…]-3′ (SEQ ID NO:48) which can function as a universal termination signal for protein translation. The coding sequence of the luciferase [de Wet, et al., Mol. Cell. Biol. 7: 725-737 (1987)] and human TRβ, RARα, and VDR was placed in the polylinker region of the pCMX, generating pCMX-LUC, Pcmx-Htrβ, pCMX-hRARα, and pCMX-hVDR, respectively. The translation start site of the RARα was modified to […] by attaching the synthetic linker encoding a consensus translation start signal [Hollenberg, et al., Cell 55: 899-906 (1988)].\nFor cotransfection assays, a monkey kidney cell line CV-1 was kept in Dulbecco's modified Eagle's medium (DMEM) supplemented with 10% charcoal-resin double split calf bovine serum. Transfections were performed via calcium-phosphate precipitation method as described by Umesono, et al. in Cell 57: 1139-1146 (1989), with 0.5 μg of a pRS receptor expression plasmid, 1.0 μg of a reporter CAT plasmid, 5 μg of pRAS-βGAL [Umesono, et al., Cell 57: 1139-1146 (1989)] as an internal control, and 8.5 μg of carrier plasmid pUC19. The cells were transfected for 8 hours; after washing the DNA precipitates, the cells were then incubated for an additional 36 hours with or without the ligand (T3, 100 nM; RA, 1 μM; 1,25-(OH)2 vitamin D3, 100 nM). Cell extracts were prepared for βGAL and CAT assays, as described by Umesono, et al., supra. Transfection of F9 teratocarcinoma cells was carried out employing a similar method except the cells were incubated for 12 hours in the presence of the DNA precipitates, and the RA was added at 1 μM for another 24 hours before harvesting the cells. 2, 5, and 4 μg of the reporter, pRAS-βGAL, and pUC19 were used, respectively.\nTarget hormone response elements described in FIG. 3 were synthesized as double-stranded oligonucleotides with an overhanging tetranucleotide (5′-agct-3′) at both ends. A single copy of these oligonucleotides was cloned at the unique HindIII site present in the basal promoter CAT construct ΔSV-CAT. Capitalized portions in the nucleotide sequences correspond to those found in the natural promoters except TREp and rGH21, which are synthetic. Bold letters indicate the “AGGTCA” motif and “X” denotes a nucleotide substitution from this motif."}, "TRβ [2]": {"target": "T1, TRβ", "assay": "Gel retardation DNA-binding assay with TRβ-expressing COS cell extracts", "set-up": "expressed in transfected cells; host or cells: COS cells (whole-cell extract)", "conditions": "for TRβ binding to labeled oligonucleotide probe: gel retardation, TRβ COS cell extract; for competition for TRβ binding (mobility shift assay): unlabeled competitor oligonucleotide, COS cells expressing TRβ", "summary_of_the_method": "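Extracts of COS cells transfected with pCMX TRβ expression plasmid, 48 h post-transfection; 5 μg protein pre-incubated on ice 20 min with poly dI/dC, then 40 fmole 32P-labelled oligonucleotide 30 min at room temperature. Complexes resolved on 5% polyacrylamide gel.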"}}}
{"substance": "GDR-3: identical to DR-3 except half-site changed to AGAACA, a GRE half-site (SEQ ID NO:26) (AGCTTCAGAACAAGGAGAACAGAGAGCT; DNA, backbone not given here; double-stranded DNA response element with agct overhangs, cloned into reporter)", "values": [{"measurement": "T3 responsiveness (in words)", "setting": "TRβ [1]", "value": "completely inactive"}]}
{"substance": "GDR-4: identical to DR-4 except half-site changed to AGAACA, a GRE half-site (SEQ ID NO:28) (AGCTTCAGAACACAGGAGAACAGAGAGCT; DNA, backbone not given here; double-stranded DNA response element with agct overhangs, cloned into reporter)", "values": [{"measurement": "T3 responsiveness (in words)", "setting": "TRβ [1]", "value": "completely inactive"}]}
{"substance": "MHC-N: 23-nucleotide core of the wild-type sequence (MHC-TRE) (SEQ ID NO:14) (AGCTGGAGGTGACAGGAGGACAGCAAGCT; DNA, backbone not given here; further chemistry not fully specified)", "values": [{"measurement": "competition for TRβ binding to 32P-labeled MHC-N", "setting": "TRβ [2]; 50-fold excess of unlabeled oligonucleotide, COS cell extracts", "value": "competed"}, {"measurement": "TRβ binding to labeled oligonucleotide probe", "setting": "TRβ [2]", "value": "specific binding"}, {"measurement": "TRβ binding to labeled oligonucleotide probe", "setting": "TRβ [2]; listed as MHC-TRE", "value": "high affinity"}, {"measurement": "competition for TRβ binding (mobility shift assay)", "setting": "TRβ [2]", "value": "efficient competition"}]}
{"substance": "TREp: optimized palindromic rat growth hormone TRE (SEQ ID NO:10) (AGCTTCAGGTCATGACCTGAGAGCT; DNA, backbone not given here; double-stranded response element with agct overhangs, cloned into reporter plasmid) [reference compound]", "values": [{"measurement": "T3 responsiveness (in words)", "setting": "TRβ [1]", "value": "responsive to T3"}, {"measurement": "competition for TRβ binding (mobility shift assay)", "setting": "TRβ [2]", "value": "efficient competition"}]}
